According to PubChem BioAssay (NCI):
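Exposure lasted 48 hours, with cells grown in 96-well plates and compounds tested at five concentrations. TGI denotes the concentration required for complete inhibition of growth.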

Columns and labels:
Experiment in all cases: NCI anticancer screen, dose series, 48 h
DLD-1 colon = tested on: DLD-1 colon
DMS 114 small cell lung = tested on: DMS 114 small cell lung
DMS 273 small cell lung = tested on: DMS 273 small cell lung
LXFL 529 NSCLC = tested on: LXFL 529 NSCLC
M19-MEL melanoma = tested on: M19-MEL melanoma
SNB-78 CNS = tested on: SNB-78 CNS
XF 498 CNS = tested on: XF 498 CNS
HOP-18 NSCLC = tested on: HOP-18 NSCLC
RXF-631 renal = tested on: RXF-631 renal

| Structure (SMILES) | TGI (DLD-1 colon) [µM] | TGI (DMS 114 small cell lung) [µM] | TGI (DMS 273 small cell lung) [µM] | TGI (LXFL 529 NSCLC) [µM] | TGI (M19-MEL melanoma) [µM] | TGI (SNB-78 CNS) [µM] | TGI (XF 498 CNS) [µM] | TGI (HOP-18 NSCLC) [µM] | TGI (RXF-631 renal) [µM] |
| --- | --- | --- | --- | --- | --- | --- | --- | --- | --- |
| Cc1cc(N(CCC#N)CCC#N)ccc1/C=C(\NC(=O)/C=C/c1ccccc1)C(N)=O | > 100 | > 100 | > 100 | > 100 | > 100 | > 100 | > 100 | – | – |
| CCCCCCCCCCCC(=O)OCC(C[As](=O)(O)O)OC(=O)CCCCCCCCCCC (stereo not given) | 31.3 | 3.13 | 10.1 | 5.21 | 15.8 | 7.69 | 7.28 | 14.1 | – |
| CCOC(=O)CC(C)C1(C(=O)OCC)CCCCC1=O (stereo not given) | > 100 | 39.4 | 32.5 | > 100 | > 100 | > 100 | > 100 | > 100 | > 100 |
| CC1=CCC(O)C=CC(C)C(O)C(C)C=C(C)C(=O)c2c(O)c(C)cc3c2C(=O)C(N)=C(NC(=O)/C=C\C=C/C=CC(C)C(O)CC1=O)C3=O (stereo not given) | > 100 | > 100 | > 100 | > 100 | > 100 | > 100 | > 100 | – | – |
| CC(=O)O[C@H]1C(=O)[C@@]2(C)C(C(OC(=O)c3ccccc3)[C@]3(O)CC(OC(=O)C(O)C(NC(=O)c4ccc(C(F)(F)F)cc4)c4ccccc4)C(C)=C1C3(C)C)[C@]1(OC(C)=O)CO[C@@H]1C[C@@H]2O (stereo not given in full) | 28.9 | 0.122 | 0.53 | – | 0.271 | 10.1 | 3.09 | 31 | – |
| COC(=O)CC1N=C(NC#N)N(CCc2c[nH]c3ccccc23)C1=O (stereo not given) | > 100 | > 100 | > 100 | > 100 | > 100 | > 100 | > 100 | – | – |
| CCN(CC)C1CC(O[C@H]2C[C@](O)(C(=O)CO)Cc3c(O)c4c(c(O)c32)C(=O)c2c(OC)cccc2C4=O)OC(C)C1O (stereo not given in full) | 0.26 | 0.274 | 0.161 | 1.1 | 0.167 | 0.785 | 0.223 | – | 11.9 |
| Cc1cc(NS(=O)(=O)c2ccc(Nc3c4ccccc4nc4c(C(=O)N5CCN(CCO)CC5)cccc34)cc2)no1 | > 100 | > 100 | > 100 | > 100 | > 100 | > 100 | > 100 | > 100 | – |
| C[Si](C)(C)OC1CC(=O)OC1n1cc(F)c(=O)[nH]c1=O (stereo not given) | > 100 | > 100 | > 100 | > 100 | > 100 | – | > 100 | > 100 | > 100 |
| CN(C)CC1CCCC(CN(C)C)C1OC(=O)c1ccccc1 (stereo not given) | > 100 | – | > 100 | > 100 | > 100 | > 100 | – | > 100 | – |
| O=c1cc(-c2ccc(Oc3ccccc3)cc2)[nH]c2cc3c(cc12)OCO3 | > 100 | > 100 | > 100 | > 100 | > 100 | – | > 100 | – | – |
| O=C(Nc1ccccc1-c1nc2ccccc2[nH]c1=O)c1ccccc1 | 68.2 | 40.7 | 52.6 | 69.2 | 91.2 | 69.2 | 49.9 | – | – |
| O=C(CC(=O)n1nc(-c2ccccc2)c(N=Nc2ccc(Cl)cc2)c1-c1ccccc1)Nc1ccc(Cl)cc1 | 44.7 | > 56.9 | > 100 | > 100 | > 76.2 | > 100 | – | > 100 | > 100 |
| Nc1nc([O-])c2c(n1)[n+](C1OC(CO)C(O)C1O)cn2CCO (stereo not given) | > 100 | > 100 | > 100 | > 100 | > 100 | > 100 | > 100 | > 100 | > 100 |
| CN=C(SC)N(C)c1nc(=[N+](C)C)ss1 | – | – | > 100 | > 100 | – | > 100 | > 100 | – | 16.4 |
